Test results published in patent US12110276B2 (Genentech, Inc., priority 2021, dated 2024).

Assays:
TEAD1 = TEAD1 (Homo sapiens (Human), UniProt P28347); assay: TR-FRET lipid pocket probe competition assay (Lipid HTRF), TEAD1; format: binding; details: 4 hours pre-incubation; read-out: Lipid HTRF TEAD1 IC50;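 further: His-tagged TEAD1 with biotinylated probe, detected via Europium anti-His and XL665 streptavidin, probe displacement lowers TR-FRET signal, IC50 from four-parameter nonlinear fit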
Procedure: (§1) His-tagged TEAD proteins are pre-incubated with TEAD project compounds for 30 minutes or 4 hours at room temperature. Biotinylated lipid pocket probes are then added to the TEAD/Compound mixture and incubated for 60 minutes at room temperature. The lipid pocket probe competes with the test compound for the TEAD lipid pocket until equilibrium is reached. After 60 minutes, Europium labelled anti-His (Perkin Elmer #AD0110) and XL665 labelled streptavidin (CIS Bio 610SAXAC) are added to the TEAD/test compound/lipid pocket mixture and incubated for 30 minutes or 4 hours. […] If a TEAD lipid pocket binder such as binds and displaces the lipid pocket probe, the disruption of the TEAD:probe interaction results in a decrease in TR-FRET signal. The potency of compounds as TEAD lipid pocket binders is determined by IC50 value generated using a non-linear 4 parameter curve fit.

TEAD2 = TEAD2 (Homo sapiens (Human), UniProt Q15562);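 further: TR-FRET competition assay with His-tagged TEAD protein and a biotinylated lipid pocket probe, compound pre-incubated 30 min or 4 h at room temperature, displacement lowers signal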
TEAD3 = TEAD3 (Homo sapiens (Human), UniProt Q99594); assay: TR-FRET lipid pocket probe competition assay (Lipid HTRF), TEAD3; format: binding; details: 4 hours pre-incubation; read-out: Lipid HTRF TEAD3 IC50
Procedure: as §1

TEAD4 = TEAD4 (Homo sapiens (Human), UniProt Q15561); assay: TR-FRET lipid pocket probe competition assay (Lipid HTRF), TEAD4; format: binding; details: 4 hours pre-incubation; read-out: Lipid HTRF TEAD4 IC50;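 further: His-tagged TEAD4 with biotinylated lipid-pocket probe, read by Europium anti-His and XL665 streptavidin, where probe displacement lowers the TR-FRET signal, IC50 from a four-parameter fit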
Chain of TEAD4 (Q15561 whole entry, species assumed): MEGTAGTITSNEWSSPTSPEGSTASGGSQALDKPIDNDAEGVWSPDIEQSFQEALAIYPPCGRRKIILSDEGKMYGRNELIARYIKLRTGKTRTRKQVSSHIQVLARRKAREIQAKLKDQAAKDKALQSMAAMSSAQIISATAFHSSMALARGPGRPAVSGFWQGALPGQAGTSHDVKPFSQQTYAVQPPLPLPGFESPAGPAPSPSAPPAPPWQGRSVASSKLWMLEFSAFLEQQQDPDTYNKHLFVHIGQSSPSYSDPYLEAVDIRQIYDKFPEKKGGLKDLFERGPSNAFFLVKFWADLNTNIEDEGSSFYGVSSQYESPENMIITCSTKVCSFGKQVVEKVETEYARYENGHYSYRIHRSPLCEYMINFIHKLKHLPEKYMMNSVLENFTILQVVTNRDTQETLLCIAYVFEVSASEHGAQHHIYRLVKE

Chain of TEAD2 (Q15562 whole entry, species assumed): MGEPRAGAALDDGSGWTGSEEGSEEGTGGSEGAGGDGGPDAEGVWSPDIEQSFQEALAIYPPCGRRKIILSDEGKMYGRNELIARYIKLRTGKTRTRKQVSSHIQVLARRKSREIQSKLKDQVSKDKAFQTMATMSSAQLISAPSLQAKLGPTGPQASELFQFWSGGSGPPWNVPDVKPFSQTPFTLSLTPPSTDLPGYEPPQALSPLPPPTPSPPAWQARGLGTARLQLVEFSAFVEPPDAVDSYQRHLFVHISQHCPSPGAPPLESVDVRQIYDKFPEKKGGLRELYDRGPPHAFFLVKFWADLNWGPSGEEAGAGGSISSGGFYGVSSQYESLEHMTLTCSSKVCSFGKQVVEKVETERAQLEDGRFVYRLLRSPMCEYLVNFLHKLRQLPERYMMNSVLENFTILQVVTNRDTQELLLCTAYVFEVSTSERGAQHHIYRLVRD
Chain of TEAD3 (Q99594 whole entry, species assumed): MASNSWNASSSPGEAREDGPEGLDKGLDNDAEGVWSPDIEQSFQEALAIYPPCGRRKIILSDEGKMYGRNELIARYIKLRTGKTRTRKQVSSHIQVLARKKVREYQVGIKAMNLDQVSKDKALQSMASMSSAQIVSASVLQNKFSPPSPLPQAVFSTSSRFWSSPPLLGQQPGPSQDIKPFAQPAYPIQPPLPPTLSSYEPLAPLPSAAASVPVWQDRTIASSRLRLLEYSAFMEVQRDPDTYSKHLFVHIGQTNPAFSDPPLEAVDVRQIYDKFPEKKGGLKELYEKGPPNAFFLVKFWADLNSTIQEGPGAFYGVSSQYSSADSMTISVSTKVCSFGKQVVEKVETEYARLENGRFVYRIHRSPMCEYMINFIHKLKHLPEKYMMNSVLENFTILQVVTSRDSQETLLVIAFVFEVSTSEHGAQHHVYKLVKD
Chain of TEAD1 (P28347 whole entry, species assumed): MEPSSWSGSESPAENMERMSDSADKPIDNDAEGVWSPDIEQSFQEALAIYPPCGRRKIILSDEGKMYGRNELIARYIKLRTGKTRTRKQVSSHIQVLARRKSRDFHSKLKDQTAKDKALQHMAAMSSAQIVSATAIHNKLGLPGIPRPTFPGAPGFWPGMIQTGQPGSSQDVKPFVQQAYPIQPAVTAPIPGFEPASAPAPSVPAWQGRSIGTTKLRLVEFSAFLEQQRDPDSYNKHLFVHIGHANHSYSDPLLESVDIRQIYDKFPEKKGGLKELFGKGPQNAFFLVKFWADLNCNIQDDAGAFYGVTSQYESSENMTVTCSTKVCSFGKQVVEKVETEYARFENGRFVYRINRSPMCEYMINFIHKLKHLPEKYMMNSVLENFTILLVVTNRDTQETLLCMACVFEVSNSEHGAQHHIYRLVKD

SMILES	IC50 (TEAD1)	IC50 (TEAD2)	IC50 (TEAD3)	IC50 (TEAD4)
CC#CC(=O)N1CC(c2nn(-c3ccc(OC(F)(F)F)cc3)c3nccc([C@H](O)CO)c23)C1 [Compound 129, (S)-1-(3-(4-(1,2-Dihydroxyethyl)-1-(4-(trifluoromethoxy)phenyl)-1H-pyrazolo[3,4-b]pyridin-3-yl)azetidin-1-yl)but-2-yn-1-one]	110 nM	20 nM	200 nM	43 nM
C=C(F)C(=O)N1CC(c2nn(-c3ccc(OC(F)(F)F)cc3)c3nccc(-c4c[nH]cn4)c23)C1 [Compound 130, 1-(3-(4-(1H-Imidazol-4-yl)-1-(4-(trifluoromethoxy)phenyl)-1H-pyrazolo[3,4-b]pyridin-3-yl)azetidin-1-yl)-2-fluoroprop-2-en-1-one]	380 nM	1000 nM	5400 nM	540 nM
C=CC(=O)NCc1nn(-c2ccc(OC(F)(F)F)cc2)c2nccc(-c3cn[nH]c3)c12 [Compound 134, N-((4-(1H-Pyrazol-4-yl)-1-(4-(trifluoromethoxy)phenyl)-1H-pyrazolo[3,4-b]pyridin-3-yl)methyl)acrylamide]	14 nM	43 nM	360 nM	22 nM
C=CC(=O)NCc1nn(-c2ccc(OC(F)(F)F)cc2)c2nccc(C(C)(C)O)c12 [Compound 135, N-((4-(2-Hydroxypropan-2-yl)-1-(4-(trifluoromethoxy)phenyl)-1H-pyrazolo[3,4-b]pyridin-3-yl)methyl)acrylamide]	390 nM	68 nM	34000 nM	99 nM
O=C(/C=C/CF)N1CC(c2nn(-c3ccc(OC(F)(F)F)cc3)c3ccnc(N4CC(O)C4)c23)C1 [Compound 137, (E)-4-fluoro-1-(3-(4-(3-hydroxyazetidin-1-yl)-1-(4-(trifluoromethoxy)phenyl)-1H-pyrazolo[4,3-c]pyridin-3-yl)azetidin-1-yl)but-2-en-1-one]	72 nM	360 nM	5200 nM	26 nM
C=CC(=O)N(C)Cc1nn(-c2ccc(OC(F)(F)F)cc2)c2nccc([C@H](O)CO)c12 [Compound 139, (S)-N-((4-(1,2-Dihydroxyethyl)-1-(4-(trifluoromethoxy)phenyl)-1H-pyrazolo[3,4-b]pyridin-3-yl)methyl)-N-methylacrylamide]	31 nM	26 nM	600 nM	12 nM
C=CC(=O)NCc1nn(-c2ccc(OC(F)F)cc2)c2nccc(CO)c12 [Compound 140, N-((1-(4-(difluoromethoxy)phenyl)-4-(hydroxymethyl)-1H-pyrazolo[3,4-b]pyridin-3-yl)methyl)acrylamide]	230 nM	720 nM	4400 nM	440 nM
C=C(F)C(=O)N1CC(c2nn(-c3ccc(OC(F)(F)F)cc3)c3nccc(N4CC([C@H](O)CO)C4)c23)C1 [Compound 141, (S)-1-(3-(4-(3-(1,2-dihydroxyethyl)azetidin-1-yl)-1-(4-(trifluoromethoxy)phenyl)-1H-pyrazolo[3,4-b]pyridin-3-yl)azetidin-1-yl)-2-fluoroprop-2-en-1-one]	27 nM	54 nM	2000 nM	6.9 nM
C=C(F)C(=O)N1CC(c2nn(-c3ccc(OC(F)(F)F)cc3)c3nccc(N4CC(CO)(CO)C4)c23)C1 [Compound 142, 1-(3-(4-(3,3-Bis(hydroxymethyl)azetidin-1-yl)-1-(4-(trifluoromethoxy)phenyl)-1H-pyrazolo[3,4-b]pyridin-3-yl)azetidin-1-yl)-2-fluoroprop-2-en-1-one]	150 nM	330 nM	50000 nM	9 nM
C=CC(=O)NCc1nn(-c2ccc(OC(F)(F)F)cc2)c2nccc(N[C@H]3C[C@@H](O)C3)c12 [Compound 143, N-((4-((3-hydroxycyclobutyl)amino)-1-(4-(trifluoromethoxy)phenyl)-1H-pyrazolo[3,4-b]pyridin-3-yl)methyl)acrylamide]	16 nM	65 nM	50000 nM	65 nM
C=CC(=O)NCc1nn(-c2ccc(OC(F)(F)F)cc2)c2nccc([C@H]3COC(=O)O3)c12 [Compound 144, (S)-N-((4-(2-Oxo-1,3-dioxolan-4-yl)-1-(4-(trifluoromethoxy)phenyl)-1H-pyrazolo[3,4-b]pyridin-3-yl)methyl)acrylamide]	560 nM	150 nM	50000 nM	55 nM
O=C(NCc1nn(-c2ccc(OC(F)(F)F)cc2)c2nccc(CO)c12)C1=CCC1 [Compound 148, N-((4-(Hydroxymethyl)-1-(4-(trifluoromethoxy)phenyl)-1H-pyrazolo[3,4-b]pyridin-3-yl)methyl)cyclobut-1-enecarboxamide]	17 nM	90 nM	280 nM	14 nM
O=C(C1=CCCC1)N1CC(c2nn(-c3ccc(OC(F)(F)F)cc3)c3nccc(CO)c23)C1 [Compound 150, Cyclopent-1-en-1-yl(3-(4-(hydroxymethyl)-1-(4-(trifluoromethoxy)phenyl)-1H-pyrazolo[3,4-b]pyridin-3-yl)azetidin-1-yl)methanone]	560 nM	1200 nM	50000 nM	460 nM
C/C=C(\C)C(=O)N1CC(c2nn(-c3ccc(OC(F)(F)F)cc3)c3nccc(CO)c23)C1 [Compound 151, (E)-1-(3-(4-(Hydroxymethyl)-1-(4-(trifluoromethoxy)phenyl)-1H-pyrazolo[3,4-b]pyridin-3-yl)azetidin-1-yl)-2-methylbut-2-en-1-one]	680 nM	630 nM	50000 nM	570 nM
O=C(C1=CCOC1)N1CC(c2nn(-c3ccc(OC(F)(F)F)cc3)c3nccc(CO)c23)C1 [Compound 152, (2,5-Dihydrofuran-3-yl)(3-(4-(hydroxymethyl)-1-(4-(trifluoromethoxy)phenyl)-1H-pyrazolo[3,4-b]pyridin-3-yl)azetidin-1-yl)methanone]	220 nM	810 nM	1200 nM	140 nM
C=C(F)C(=O)NCc1nn(-c2ccc(OC(F)(F)F)cc2)c2nccc([C@H](O)CO)c12 [Compound 155, (S)-N-((4-(1,2-Dihydroxyethyl)-1-(4-(trifluoromethoxy)phenyl)-1H-pyrazolo[3,4-b]pyridin-3-yl)methyl)-2-fluoroacrylamide]	320 nM	350 nM	6900 nM	160 nM
O=C(NCc1nn(-c2ccc(OC(F)(F)F)cc2)c2nccc([C@H](O)CO)c12)C1=CCC1 [Compound 156, (S)-N-((4-(1,2-Dihydroxyethyl)-1-(4-(trifluoromethoxy)phenyl)-1H-pyrazolo[3,4-b]pyridin-3-yl)methyl)cyclobut-1-enecarboxamide]	33 nM	25 nM	740 nM	7.8 nM
C=C(F)C(=O)N1CC(c2nn(-c3ccc(OC(F)(F)F)cc3)c3nccc(-c4cnn(C)c4)c23)C1 [Compound 158, 2-Fluoro-1-(3-(4-(1-methyl-1H-pyrazol-4-yl)-1-(4-(trifluoromethoxy)phenyl)-1H-pyrazolo[3,4-b]pyridin-3-yl)azetidin-1-yl)prop-2-en-1-one]	51 nM	690 nM	4300 nM	64 nM
C=C(C)S(=O)(=O)N1CC(c2nn(-c3ccc(OC(F)(F)F)cc3)c3nccc([C@H](O)CO)c23)C1 [Compound 159, (S)-1-(3-(1-(Prop-1-en-2-ylsulfonyl)azetidin-3-yl)-1-(4-(trifluoromethoxy)phenyl)-1H-pyrazolo[3,4-b]pyridin-4-yl)ethane-1,2-diol]	45 nM	5.7 nM	240 nM	8.5 nM
C=C(C)S(=O)(=O)N1CC(c2nn(-c3ccc(OC(F)(F)F)cc3)c3nccc([C@@H](O)CO)c23)C1 [Compound 160, (R)-1-(3-(1-(prop-1-en-2-ylsulfonyl)azetidin-3-yl)-1-(4-(trifluoromethoxy)phenyl)-1H-pyrazolo[3,4-b]pyridin-4-yl)ethane-1,2-diol]	76 nM	15 nM	1200 nM	43 nM
C=CC(=O)NCc1nn(-c2ccc(OC(F)(F)F)cc2)c2nccc(-c3cnn(C)c3)c12 [Compound 164, N-((4-(1-methyl-1H-pyrazol-4-yl)-1-(4-(trifluoromethoxy)phenyl)-1H-pyrazolo[3,4-b]pyridin-3-yl)methyl)acrylamide]	47.9 nM	129 nM	2040 nM	32 nM
C=CC(=O)NCc1nn(-c2ccc(OC(F)(F)F)cc2)c2nccc(-c3cnn(CC(N)=O)c3)c12 [Compound 165, N-((4-(1-(2-amino-2-oxoethyl)-1H-pyrazol-4-yl)-1-(4-(trifluoromethoxy)phenyl)-1H-pyrazolo[3,4-b]pyridin-3-yl)methyl)acrylamide]	120 nM	40 nM	50000 nM	100 nM
C=CC(=O)NCc1nn(-c2ccc(OC(F)(F)F)cc2)c2nccc(-c3cnn(CCOC)c3)c12 [Compound 167, N-[[4-[1-(2-methoxyethyl)pyrazol-4-yl]-1-[4-(trifluoromethoxy)phenyl]pyrazolo[3,4-b]pyridin-3-yl]methyl]prop-2-enamide]	57 nM	210 nM	1700 nM	35 nM
C=CC(=O)NCc1nn(-c2ccc(OC(F)(F)F)cc2)c2nccc(-c3cnn(CCS(C)(=O)=O)c3)c12 [Compound 168, N-((4-(1-(2-(methylsulfonyl)ethyl)-1H-pyrazol-4-yl)-1-(4-(trifluoromethoxy)phenyl)-1H-pyrazolo[3,4-b]pyridin-3-yl)methyl)acrylamide]	140 nM	1100 nM	50000 nM	49 nM
